Read-outs that look alike come from different tables or passages of the source.
Legend:
α7 nAChR subunit = α7 nAChR subunit (Mus musculus, UniProt P49582)
[1] = tested on: LPS-induced TNF-α release in primary cultured microglial cells; assay: LPS-induced TNF-α release from primary cultured microglial cells (ELISA); format: cell-based, mouse
Method: Murine primary culture microglial cells were isolated from mouse cerebral cortices (C57BL/6 mice) and cultured as previously described (Tan et al. 2000b). To investigate whether α7 nAChR subunits are expressed in microglial cells, we first isolated total RNA from N9 microglial cell line and primary cultured microglial cells for RT-PCR analysis.
To determine whether ACh or nicotine could inhibit LPS-induced TNF-α production in these microglial cells, the inventors pre-incubated microglial cells with ACh or nicotine for 30 minutes and challenged these cells with LPS for 4 hours. […] Primary cultured microglial cells pretreated with ACh (FIG. 3B) or nicotine […] at a range of dose as indicated for 30 minutes and challenged with LPS (100 ng/mL) for 4 hours. Microglial TNF-α release was measured by ELISA.

Sequence of α7 nAChR subunit (P49582 23-502): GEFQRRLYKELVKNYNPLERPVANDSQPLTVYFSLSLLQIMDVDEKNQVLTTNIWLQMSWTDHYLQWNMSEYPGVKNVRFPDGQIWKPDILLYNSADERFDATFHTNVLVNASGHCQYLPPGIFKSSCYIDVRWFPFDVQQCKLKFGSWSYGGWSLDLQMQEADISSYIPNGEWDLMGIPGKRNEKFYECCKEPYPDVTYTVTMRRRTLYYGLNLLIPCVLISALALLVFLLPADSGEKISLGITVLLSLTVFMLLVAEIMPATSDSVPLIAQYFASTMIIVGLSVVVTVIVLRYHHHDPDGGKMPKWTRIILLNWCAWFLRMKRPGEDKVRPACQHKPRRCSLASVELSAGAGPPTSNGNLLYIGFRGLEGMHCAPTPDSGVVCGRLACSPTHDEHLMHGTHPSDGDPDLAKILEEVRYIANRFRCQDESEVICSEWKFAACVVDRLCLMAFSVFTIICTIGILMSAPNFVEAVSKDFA

## CN1CCCC1c1cccnc1 (stereo not drawn) [nicotine]
α7 nAChR subunit
  fluorescent intensity of FITC-labeled α-bungarotoxin binding: marked reduction
[1]
  dose dependence of inhibition of microglial LPS-induced TNF-α production: dose-dependently inhibits
[1]; pre-stimulated 30 minutes at 5 μM, then LPS 100 ng/mL for 4 hours, p<0.01 vs LPS (FIG. 3A)
  LPS-induced TNF-α release: marked reduction

## α-bungarotoxin
[1]
  TNF-α release, antagonist plus LPS versus LPS alone: no significances

## CNC1(C)C2CCC(C2)C1(C)C (stereo not drawn) [mecamylamine]
[1]
  effect of nACh antagonist on ACh or nicotine-mediated inhibition of microglial TNF-α production: significantly recovers
[1]; antagonist without agonist, […], LPS 100 ng/mL 4 hours, p>0.05
  TNF-α release, antagonist plus LPS versus LPS alone: no significances
